Drawing on patent publication US11649255B2, “Indazoles as hematopoietic progenitor kinase 1 (HPK1) inhibitors and methods using same” (1st Biotherapeutics, Inc., priority 2020, dated 2023), this text covers IC50 for 35 compounds.

The assay concerns the target recombinant human HPK1 (Homo sapiens (Human), UniProt Q92918). The assay is described as follows: HPK1 kinase assay (ADP-Glo). Type of assay: biochemical. The conditions noted are these: 25 μM ATP, MBP substrate. The procedure, abridged:
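Activity was read as ADP formed, detected by ADP-Glo luminescence after the reaction of 5 ng recombinant human HPK1 with MBP and ATP (stocks 0.5 μg/μl and 25 μM) for 40 min at 30 °C. Buffer was Tris pH 7.5 with MgCl2, BSA and DTT, with compound in 0.5% DMSO. IC50 came from inhibition curves.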

Sequence of recombinant human HPK1 (Q92918 whole entry): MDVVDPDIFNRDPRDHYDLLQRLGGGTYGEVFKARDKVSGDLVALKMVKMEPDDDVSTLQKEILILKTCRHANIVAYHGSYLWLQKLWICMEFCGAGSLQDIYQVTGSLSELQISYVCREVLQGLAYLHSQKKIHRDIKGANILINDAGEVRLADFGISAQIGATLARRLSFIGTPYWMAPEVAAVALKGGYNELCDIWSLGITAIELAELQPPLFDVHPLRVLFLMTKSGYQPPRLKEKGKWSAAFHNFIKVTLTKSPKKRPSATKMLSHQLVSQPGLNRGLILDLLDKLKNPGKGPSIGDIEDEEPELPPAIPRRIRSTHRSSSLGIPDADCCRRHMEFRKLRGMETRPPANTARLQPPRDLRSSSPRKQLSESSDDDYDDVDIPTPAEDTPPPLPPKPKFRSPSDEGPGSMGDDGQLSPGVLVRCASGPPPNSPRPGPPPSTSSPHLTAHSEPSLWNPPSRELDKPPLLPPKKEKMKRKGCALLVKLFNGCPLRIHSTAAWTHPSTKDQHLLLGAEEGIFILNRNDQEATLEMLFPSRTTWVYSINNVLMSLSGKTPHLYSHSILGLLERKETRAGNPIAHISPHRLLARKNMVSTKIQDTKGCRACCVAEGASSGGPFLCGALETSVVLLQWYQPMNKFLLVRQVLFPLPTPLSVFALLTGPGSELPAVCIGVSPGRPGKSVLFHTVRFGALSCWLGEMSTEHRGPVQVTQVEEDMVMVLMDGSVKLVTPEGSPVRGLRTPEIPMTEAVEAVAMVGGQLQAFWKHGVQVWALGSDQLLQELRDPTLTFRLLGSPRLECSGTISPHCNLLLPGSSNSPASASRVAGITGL

For the compound `Cc1c(F)c(C(F)F)c2[nH]ncc2c1-c1ccc2nc(NC(=O)[C@@H]3C[C@@H]3F)sc2n1` [Example 217, (1S,2S)-N-(5-(7-(difluoromethyl)-6-fluoro-5-methyl-1H-indazol-4-yl)thiazolo[5,4-b]pyridin-2-yl)-2-fluorocyclopropane-1-carboxamide], the IC50 is under 100 nM.
Next, `CCN(C)c1c(F)c(SC)c(-c2ccc3nc(NC(=O)[C@@H]4C[C@@H]4F)sc3n2)c2cn[nH]c12` [Example 218, (1S,2S)-N-(5-(7-(ethyl(methyl)amino)-6-fluoro-5-(methylthio)-1H-indazol-4-yl)thiazolo[5,4-b]pyridin-2-yl)-2-fluorocyclopropane-1-carboxamide]: under 100 nM; `CSc1c(F)cc2[nH]ncc2c1-c1cc2sc(NC(=O)[C@@H]3C[C@@H]3F)nc2cn1` [Example 219, (1S,2S)-2-fluoro-N-(6-(6-fluoro-5-(methylthio)-1H-indazol-4-yl)thiazolo[4,5-c]pyridin-2-yl)cyclopropane-1-carboxamide]: 101 to 500 nM.
For the compound `C[S+]([O-])c1c(F)cc2[nH]ncc2c1-c1cc2sc(NC(=O)[C@@H]3C[C@@H]3F)nc2cn1` (stereo partly drawn) [Example 220, (1S,2S)-2-fluoro-N-(6-(6-fluoro-5-(methylsulfinyl)-1H-indazol-4-yl)thiazolo[4,5-c]pyridin-2-yl)cyclopropane-1-carboxamide], the IC50 is over 1000 nM.
For the compound `Cc1ccc2[nH]ncc2c1-c1ccc2nc(NC(=O)[C@@H]3C[C@@H]3F)cn2c1` [Example 221, (1S,2S)-2-fluoro-N-(6-(5-methyl-1H-indazol-4-yl)imidazo[1,2-a]pyridin-2-yl)cyclopropane-1-carboxamide], the IC50 was 101 to 500 nM.
Next, `O=C(Nc1cn2cc(-c3cccc4[nH]ncc34)ccc2n1)[C@@H]1C[C@@H]1F` [Example 222, (1S,2S)-N-(6-(1H-indazol-4-yl)imidazo[1,2-a]pyridin-2-yl)-2-fluorocyclopropane-1-carboxamide]: 501 to 1000 nM; `O=C(Nc1cn2cc(-c3c(Cl)ccc4[nH]ncc34)ccc2n1)C1CC1` [Example 223, N-(6-(5-chloro-1H-indazol-4-yl)imidazo[1,2-a]pyridin-2-yl)cyclopropanecarboxamide]: under 100 nM.
In the case of `COc1ccc2[nH]ncc2c1-c1ccc2nc(NC(=O)C3CC3)cn2c1` [Example 224, N-(6-(5-methoxy-1H-indazol-4-yl)imidazo[1,2-a]pyridin-2-yl)cyclopropanecarboxamide], the IC50 lay in the range of 101 to 500 nM.
`Nc1ccc2[nH]ncc2c1-c1ccc2nc(NC(=O)C3CC3)cn2c1` [Example 225, N-(6-(5-amino-1H-indazol-4-yl)imidazo[1,2-a]pyridin-2-yl)cyclopropanecarboxamide]: the IC50 is over 1000 nM.
For the compound `O=C(Nc1cn2cc(-c3c(C(F)(F)F)ccc4[nH]ncc34)ccc2n1)C1CC1` [Example 226, N-(6-(5-(trifluoromethyl)-1H-indazol-4-yl)imidazo[1,2-a]pyridin-2-yl)cyclopropanecarboxamide], the IC50 was under 100 nM.
Under `Nc1c(F)cc2[nH]ncc2c1-c1ccc2nc(NC(=O)C3CC3)cn2c1` [Example 227, N-(6-(5-amino-6-fluoro-1H-indazol-4-yl)imidazo[1,2-a]pyridin-2-yl)cyclopropanecarboxamide] stands over 1000 nM; under `O=C(Nc1cn2cc(-c3c(Br)ccc4[nH]ncc34)ccc2n1)C1CC1` [Example 228, N-(6-(5-bromo-1H-indazol-4-yl)imidazo[1,2-a]pyridin-2-yl)cyclopropanecarboxamide], over 1000 nM.
Next, `CNc1ccc2[nH]ncc2c1-c1ccc2nc(NC(=O)C3CC3)cn2c1` [Example 229, N-(6-(5-(methylamino)-1H-indazol-4-yl)imidazo[1,2-a]pyridin-2-yl)cyclopropanecarboxamide]: under 100 nM; `CN(C)c1ccc2[nH]ncc2c1-c1ccc2nc(NC(=O)C3CC3)cn2c1` [Example 230, N-(6-(5-(dimethylamino)-1H-indazol-4-yl)imidazo[1,2-a]pyridin-2-yl)cyclopropanecarboxamide]: over 1000 nM.
`O=C(Nc1cn2cc(-c3c(Br)c(F)cc4[nH]ncc34)ccc2n1)C1CC1` [Example 231, N-(6-(5-bromo-6-fluoro-1H-indazol-4-yl)imidazo[1,2-a]pyridin-2-yl)cyclopropanecarboxamide]: the IC50 was over 1000 nM.
Under `N#Cc1ccc2[nH]ncc2c1-c1ccc2nc(NC(=O)C3CC3)cn2c1` [Example 232, N-(6-(5-cyano-1H-indazol-4-yl)imidazo[1,2-a]pyridin-2-yl)cyclopropanecarboxamide] stands under 100 nM.
For the compound `O=C(Nc1cn2cc(-c3c(CO)ccc4[nH]ncc34)ccc2n1)C1CC1` [Example 233, N-(6-(5-(hydroxymethyl)-1H-indazol-4-yl)imidazo[1,2-a]pyridin-2-yl)cyclopropanecarboxamide], the IC50 fell in the range of 501 to 1000 nM.
With `CCc1ccc2[nH]ncc2c1-c1ccc2nc(NC(=O)C3CC3)cn2c1` [Example 234, N-(6-(5-ethyl-1H-indazol-4-yl)imidazo[1,2-a]pyridin-2-yl)cyclopropanecarboxamide], the IC50 is over 1000 nM.
On to `C=Cc1c(F)cc2[nH]ncc2c1-c1ccc2nc(NC(=O)C3CC3)cn2c1` [Example 235, N-(6-(6-fluoro-5-vinyl-1H-indazol-4-yl)imidazo[1,2-a]pyridin-2-yl)cyclopropanecarboxamide], for which the IC50 is under 100 nM.
Under `O=C(Nc1cn2cc(-c3c(C(F)(F)F)ccc4[nH]ncc34)ccc2n1)[C@@H]1C[C@@H]1F` [Example 236, (1S,2S)-2-fluoro-N-(6-(5-(trifluoromethyl)-1H-indazol-4-yl)imidazo[1,2-a]pyridin-2-yl)cyclopropane-1-carboxamide] stands under 100 nM; under `O=C(Nc1cn2cc(-c3c(Cl)ccc4[nH]ncc34)ccc2n1)[C@@H]1C[C@@H]1F` [Example 237, (1S,2S)-N-(6-(5-chloro-1H-indazol-4-yl)imidazo[1,2-a]pyridin-2-yl)-2-fluorocyclopropane-1-carboxamide], under 100 nM.
On to `O=C(Nc1cn2cc(-c3c(Br)ccc4[nH]ncc34)ccc2n1)[C@@H]1C[C@@H]1F` [Example 238, (1S,2S)-N-(6-(5-bromo-1H-indazol-4-yl)imidazo[1,2-a]pyridin-2-yl)-2-fluorocyclopropane-1-carboxamide], for which the IC50 was under 100 nM.
With `CC(=O)c1ccc2[nH]ncc2c1-c1ccc2nc(NC(=O)C3CC3)cn2c1` [Example 239, N-(6-(5-acetyl-1H-indazol-4-yl)imidazo[1,2-a]pyridin-2-yl)cyclopropanecarboxamide], the IC50 was under 100 nM.
For `Nc1c(Cl)cc2[nH]ncc2c1-c1ccc2nc(NC(=O)C3CC3)cn2c1` [Example 240, N-(6-(5-amino-6-chloro-1H-indazol-4-yl)imidazo[1,2-a]pyridin-2-yl)cyclopropanecarboxamide], the IC50 was in the range of 501 to 1000 nM.
Consider `O=C(Nc1cn2cc(-c3c(C4CC4)c(F)cc4[nH]ncc34)ccc2n1)C1CC1` [Example 241, N-(6-(5-cyclopropyl-6-fluoro-1H-indazol-4-yl)imidazo[1,2-a]pyridin-2-yl)cyclopropanecarboxamide], for which the IC50 was over 1000 nM.
Consider `O=C(Nc1cn2cc(-c3c(Cl)c(F)cc4[nH]ncc34)ccc2n1)C1CC1` [Example 242, N-(6-(5-chloro-6-fluoro-1H-indazol-4-yl)imidazo[1,2-a]pyridin-2-yl)cyclopropanecarboxamide], for which the IC50 fell in the range of 101 to 500 nM.
On to `O=C(Nc1cn2cc(-c3c(Cl)c(F)cc4[nH]ncc34)ccc2n1)[C@@H]1C[C@@H]1F` [Example 243, (1S,2S)-N-(6-(5-chloro-6-fluoro-1H-indazol-4-yl)imidazo[1,2-a]pyridin-2-yl)-2-fluorocyclopropane-1-carboxamide], for which the IC50 was under 100 nM.
As for `O=C(Nc1cn2cc(-c3c(C4CC4)ccc4[nH]ncc34)ccc2n1)C1CC1` [Example 244, N-(6-(5-cyclopropyl-1H-indazol-4-yl)imidazo[1,2-a]pyridin-2-yl)cyclopropanecarboxamide], the IC50 is 101 to 500 nM.
For `Cc1c(F)cc2[nH]ncc2c1-c1ccc2nc(NC(=O)C3CC3)cn2c1` [Example 245, N-(6-(6-fluoro-5-methyl-1H-indazol-4-yl)imidazo[1,2-a]pyridin-2-yl)cyclopropanecarboxamide], the IC50 was under 100 nM.
As for `CC(C)c1c(F)cc2[nH]ncc2c1-c1ccc2nc(NC(=O)C3CC3)cn2c1` [Example 246, N-(6-(6-fluoro-5-isopropyl-1H-indazol-4-yl)imidazo[1,2-a]pyridin-2-yl)cyclopropanecarboxamide], the IC50 is under 100 nM.
As to `CSc1ccc2[nH]ncc2c1-c1ccc2nc(NC(=O)C3CC3)cn2c1` [Example 247, N-(6-(5-(methylthio)-1H-indazol-4-yl)imidazo[1,2-a]pyridin-2-yl)cyclopropanecarboxamide], the IC50 was under 100 nM.
Turning to `CCc1c(F)cc2[nH]ncc2c1-c1ccc2nc(NC(=O)C3CC3)cn2c1` [Example 248, N-(6-(5-ethyl-6-fluoro-1H-indazol-4-yl)imidazo[1,2-a]pyridin-2-yl)cyclopropanecarboxamide], the IC50 is under 100 nM.
Take `O=C(Nc1cn2cc(-c3c(C(F)F)ccc4[nH]ncc34)ccc2n1)C1CC1` [Example 249, N-(6-(5-(difluoromethyl)-1H-indazol-4-yl)imidazo[1,2-a]pyridin-2-yl)cyclopropanecarboxamide]: the IC50 fell in the range of 101 to 500 nM.
For `Cc1c(F)cc2[nH]ncc2c1-c1ccc2nc(NC(=O)[C@@H]3C[C@@H]3F)cn2c1` [Example 250, (1S,2S)-2-fluoro-N-(6-(6-fluoro-5-methyl-1H-indazol-4-yl)imidazo[1,2-a]pyridin-2-yl)cyclopropane-1-carboxamide], the IC50 was under 100 nM.
As to `O=C(Nc1cn2cc(-c3c(CO)c(F)cc4[nH]ncc34)ccc2n1)C1CC1` [Example 251, N-(6-(6-fluoro-5-(hydroxymethyl)-1H-indazol-4-yl)imidazo[1,2-a]pyridin-2-yl)cyclopropanecarboxamide], the IC50 was over 1000 nM.

As usually defined, the IC50 is the concentration at which inhibition is half-maximal.
